# ChEMBL document CHEMBL5360578, “Design, synthesis and evaluation of novel pyrrole-hydroxybutenolide hybrids as promising antiplasmodial and anti-inflammatory agents” (Eur J Med Chem, 2023)
# Calls of active or inactive are those of the source. The calls are words filed in the database; no cut-off is given here.
# Columns and labels:
# HEK-293T = test: Antiinflammatory activity against HEK293T cells assessed as fold increase in TNFalpha-induced NF-kappaB activity at 10 uM incubated for 1 hr followed by TNFalpha treatment for 5 hrs by luciferase based assay (reference value: 17.1); assay type: functional, Homo sapiens
# Plasmodium falciparum [1] = test: Antimalarial activity against asynchronous chloroquine-sensitive Plasmodium falciparum 3D7 assessed as parasite growth inhibition infected in erythrocytes incubated for 72 hrs by SYBR green dye based assay; assay type: functional, organism-based; settings: 3D7, 72 h
# THP-1 [2] = test: Cytotoxicity against LPS-stimulated human THP-1 cells assessed as cell viability at 10 uM incubated for 12 hrs followed by LPS treatment measured after 4 hrs by PI staining based flow cytometry; assay type: functional; settings: time 16.0 hrs
# THP-1 [3] = test: Antiinflammatory activity against human THP-1 cells assessed as inhibition of LPS-induced TNFalpha level at 10 uM incubated for 12 to 14 hrs followed by compound replenishment for 1 hr and subsequent LPS treatment for 4 hrs by ELISA assay (reference value: 93.43 %); assay type: functional; set-up: scale not given: the % may be the effect or the level left; settings: time 17-19 hrs
# Plasmodium falciparum [4] = test: Antimalarial activity against asynchronous chloroquine-resistant Plasmodium falciparum K1 assessed as parasite growth inhibition infected in erythrocytes incubated for 72 hrs by SYBR green dye based assay; assay type: functional, organism-based; settings: K1, 72 h
# Plasmodium yoelii [5] = test: Antimalarial activity against chloroquine-resistant Plasmodium yoelii N67 infected in Swiss mouse assessed as parasite growth suppression at 100 mg/kg/day, po for 4 days measured on day 7 relative to control; assay type: functional; settings: time 7 day
# [6] = Cytotoxicity against African green monkey Vero cells incubated for 3 days by fluorescence based assay; assay type: toxicity, cell-based; settings: chlorocebus sabaeus, time 3 day
# [7] = Toxicity in Swiss mouse infected with chloroquine-resistant Plasmodium yoelii N67 assessed as mean survival time at 100 mg/kg/day, po for 4 days (reference value: 7.2 +/- 1.3 day); assay type: organism-based; settings: in vivo, 96 h, time 4 day
# Plasmodium yoelii [8] = test: Antimalarial activity against chloroquine-resistant Plasmodium yoelii N67 infected in Swiss mouse assessed as parasite growth suppression at 100 mg/kg/day, po for 4 days measured on day 4 relative to control; assay type: functional; settings: time 4 day
# [9] = Cmax in fasted Swiss mouse at 50 mg/kg, po measured upto 48 hrs by LC-MS/MS analysis; assay type: ADME, organism-based; set-up: time < 48 hrs, dose 50 mg/kg, route po; settings: in vivo
# [10] = Stability in mouse plasma assessed as compound remaining at 10 uM measured upto 120 mins by LC-MS analysis; assay type: ADME, cell-free; settings: read-out: Stability
# [11] = MRT in fasted Swiss mouse at 50 mg/kg, po measured upto 48 hrs by LC-MS/MS analysis; assay type: ADME, organism-based; settings: in vivo
# THP-1 [12] = test: Downregulation of LPS-induced ERK1/2 phosphorylation in human THP-1 cells at 10 uM incubated for 60 mins followed by LPS treatment 90 mins by […]; assay type: functional, cell-based; settings: time 150.0 min
# [13] = Stability in simulated intestinal fluid assessed as compound remaining at pH 6.8 measured upto 120 mins by LC-MS analysis; assay type: ADME; settings: read-out: Stability
# [14] = Tmax in fasted Swiss mouse at 50 mg/kg, po measured upto 48 hrs by LC-MS/MS analysis; assay type: ADME, organism-based; settings: in vivo
# THP-1 [15] = test: Downregulation of LPS-induced JNK1/2 phosphorylation in human THP-1 cells at 10 uM incubated for 60 mins followed by LPS treatment 90 mins by […]; assay type: functional, cell-based; settings: time 150.0 min
# [16] = Clearance in fasted Swiss mouse at 50 mg/kg, po measured upto 48 hrs by LC-MS/MS analysis; assay type: ADME, organism-based; settings: in vivo
# Mus musculus [17] = test: Antiinflammatory activity in Swiss albino mouse assessed as inhibition of carrageenan-induced paw edema at 25 mg/kg,po pretreated for 1 hr followed by carrageenan administration measured after 4 hrs relative to control; assay type: functional; settings: time 5 hrs
# Mus musculus [18] = test: Antiinflammatory activity in Swiss albino mouse assessed as inhibition of carrageenan-induced paw edema at 25 mg/kg,po pretreated for 1 hr followed by carrageenan administration measured after 6 hrs relative to control; assay type: functional; settings: time 7 hrs
# Mus musculus [19] = test: Antiinflammatory activity in Swiss albino mouse assessed as inhibition of carrageenan-induced paw edema at 100 mg/kg,po pretreated for 1 hr followed by carrageenan administration measured after 4 hrs relative to control; assay type: functional; settings: time 5 hrs
# [20] = Volume of distribution in fasted Swiss mouse at 50 mg/kg, po measured upto 48 hrs by LC-MS/MS analysis; assay type: ADME, organism-based; settings: in vivo
# Mus musculus [21] = test: Antiinflammatory activity in Swiss albino mouse assessed as inhibition of carrageenan-induced paw edema at 100 mg/kg,po pretreated for 1 hr followed by carrageenan administration measured after 6 hrs relative to control; assay type: functional; settings: time 7 hrs
# Mus musculus [22] = test: Antiinflammatory activity in Swiss albino mouse assessed as inhibition of carrageenan-induced paw edema at 50 mg/kg,po pretreated for 1 hr followed by carrageenan administration measured after 6 hrs relative to control; assay type: functional; settings: time 7 hrs
# Mus musculus [23] = test: Antiinflammatory activity in Swiss albino mouse assessed as inhibition of carrageenan-induced paw edema at 50 mg/kg,po pretreated for 1 hr followed by carrageenan administration measured after 4 hrs relative to control; assay type: functional; settings: time 5 hrs
# [24] = Half life in fasted Swiss mouse at 50 mg/kg, po measured upto 48 hrs by LC-MS/MS analysis; assay type: ADME, organism-based; settings: in vivo
# [25] = AUC in fasted Swiss mouse at 50 mg/kg, po measured upto 48 hrs by LC-MS/MS analysis; assay type: ADME, organism-based; set-up: time < 48 hrs, dose 50 mg/kg, route po; settings: in vivo
# [26] = Stability in simulated gastric fluid assessed as compound remaining at pH 1.2 measured upto 120 mins by LC-MS analysis; assay type: ADME; settings: read-out: Stability
# [27] = Stability in simulated physiological fluid assessed as compound remaining at pH 7.4 measured upto 120 mins by LC-MS analysis; assay type: physicochemical; settings: read-out: Stability
Structure (SMILES),fold change (FC) (HEK-293T),IC50 (Plasmodium falciparum [1]),Activity (THP-1 [2]),Activity (THP-1 [3]),other results
COc1ccc(-c2c(C(=O)Nc3ccccc3)c(C)n(CC3=CC(=O)OC3O)c2-c2ccc(OC)cc2)cc1 (stereo not given),9.8,1800 nM,Active,19.82%,–
Cc1ccc(-c2c(C(=O)Nc3ccccc3)c(C)n(CCC3=CC(=O)OC3O)c2-c2ccc(C)cc2)cc1 (stereo not given),–,> 5000 nM,–,–,–
CC1=CCC[C@@H]2[C@@](C)(CCC3=CC(=O)O[C@@H]3O)[C@H](C)CC[C@@]12C,–,1270 nM,–,–,IC50 (Plasmodium falciparum [4]): 2880 nM
Cc1c(C(=O)Nc2ccccc2)c(-c2ccc(F)cc2)c(-c2ccc(F)cc2)n1CC1=CC(=O)OC1O (stereo not given),9,4620 nM,Active,32.69%,–
O=C1OC(O)C(Cl)=C1Cl (stereo not given) [MUCOCHLORIC ACID],–,4000 nM,–,–,IC50 (Plasmodium falciparum [4]): > 5000 nM
Cc1ccc(-c2c(-c3ccccc3)c(C(=O)Nc3ccccc3)c(C)n2CC2=CC(=O)OC2O)cc1 (stereo not given),12.5,1310 nM,Active,84%,–
Cc1c(C(=O)Nc2ccccc2)c(-c2ccccc2)c(-c2ccc(F)cc2)n1CC1=CC(=O)OC1O (stereo not given),10.3,2660 nM,Active,83.11%,–
COc1ccc(-c2c(-c3ccccc3)c(C(=O)Nc3ccccc3)c(C)n2CCC2=CC(=O)OC2O)cc1 (stereo not given),–,> 5000 nM,–,–,–
Cc1c(C(=O)Nc2ccccc2)c(-c2ccccc2)c(-c2ccc(F)cc2)n1CCC1=CC(=O)OC1O (stereo not given),11.4,880 nM,Active,89.15%,Activity (Plasmodium yoelii [5]): 46.6%; IC50 (Plasmodium falciparum [4]): 4310 nM; CC50 at 72 h [6]: > 200000 nM; MST [7]: 8 days; Activity (Plasmodium yoelii [8]): 56.4%
Cc1c(C(=O)Nc2ccccc2)c(-c2ccc(Cl)cc2)c(-c2ccc(Cl)cc2)n1CC1=CC(=O)OC1O (stereo not given),8.5,1870 nM,Active,91.04%,–
Cc1c(C(=O)Nc2ccccc2)c(-c2ccccc2)c(-c2ccc(Cl)cc2)n1CC1=CC(=O)OC1O (stereo not given),12.1,1360 nM,Active,88.38%,–
Cc1c(C(=O)Nc2ccccc2)c(-c2ccccc2)c(-c2ccc(Cl)cc2)n1CCC1=CC(=O)OC1O (stereo not given),10.4,2190 nM,Active,35.92%,–
Cc1c(C(=O)Nc2ccccc2)c(-c2ccccc2)c(-c2ccccc2)n1CC1=CC(=O)OC1O (stereo not given),10.6,1420 nM,Active,78.73%,–
Cc1c(C(=O)Nc2ccccc2)c(-c2ccc(Cl)cc2)c(-c2ccc(Cl)cc2)n1CCC1=CC(=O)OC1O (stereo not given),9.9,1470 nM,Active,92.36%,"Cmax [9]: 110 ng/mL; remaining at 2 h, 10 µM [10]: 86.5%; MRT [11]: 61.2 min; Activity (THP-1 [12]): Active; remaining at 2 h [13]: 84.4%; Tmax [14]: 15 min; Activity (THP-1 [15]): Active; CL/F [16]: 589 L/h/kg; inhibition in vivo at 25 mg/kg (Mus musculus [17]): 61%; inhibition in vivo at 25 mg/kg (Mus musculus [18]): 56%; inhibition in vivo at 100 mg/kg (Mus musculus [19]): 73%; Vd [20]: 754.5 L/kg; inhibition in vivo at 100 mg/kg (Mus musculus [21]): 65%; inhibition in vivo at 50 mg/kg (Mus musculus [22]): 56%; inhibition in vivo at 50 mg/kg (Mus musculus [23]): 62%; half-life [24]: 52.2 min; AUC at 48 h [25]: 86.9 ng·h/mL; remaining at 2 h [26]: 89.5%; remaining at 2 h [27]: 87.9%"
